{"source": "patent US12060360B2", "about": "“Lysyl oxidase inhibitors” (The Institute of Cancer Research: Royal Cancer Hospital, priority 2017, dated 2024)", "key": {"LOX": {"molecular_target": "T1, LOX (Mus musculus, UniProt P28301)", "T1 construct": "Full length LOX cDNA was then PCR cloned into pEGFP-N1 (Clonetech), or biosensor vector proGFP2-N1; expressed in transfected cells; host or cells: MDCK cells grown as cysts on Matrigel, G418-selected", "T1 sequence (P28301 163-411)": "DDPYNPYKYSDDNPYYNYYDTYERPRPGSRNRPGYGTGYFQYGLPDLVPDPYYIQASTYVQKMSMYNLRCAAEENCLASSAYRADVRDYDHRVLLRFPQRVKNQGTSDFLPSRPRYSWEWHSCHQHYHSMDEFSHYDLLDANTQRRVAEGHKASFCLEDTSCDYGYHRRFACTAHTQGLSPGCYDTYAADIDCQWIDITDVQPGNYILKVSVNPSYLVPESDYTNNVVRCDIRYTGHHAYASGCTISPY", "experiment": "LOX activity in cysts assay (LOX-roGFP2 biosensor, MDCK cysts)", "assay_type": "cell-based", "conditions": "MDCK cysts", "in_short": "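Live MDCK cysts grown 10 days on Matrigel and expressing mouse LOX fused to the roGFP2 redox biosensor, with inhibitors added 30 min before confocal imaging. Oxidised/reduced ratio (405/488 nm excitation, 500–530 nm emission) at the basal cyst surface taken as LOX activity. DMSO defines 0% and 1 mM BAPN 100% inhibition.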"}, "[1]": {"tested_on": "MMTV-PyMT breast transgenic model lung metastases", "experiment": "MMTV-PyMT transgenic mouse breast cancer model, lung metastases quantification T/C", "assay_type": "in vivo", "conditions": "200 mg/kg po qd, treated/vehicle control, p<0.05", "protocol": "(§1) MMTV-PyMT (Guy et al, 1992) (FVB) female mice were randomized by non-statistical methods to LOX inhibitor treatment groups from day 70 post-birth, when animals had no detectable tumour. Mice were treated daily by oral gavage with LOX inhibitor in vehicle, or daily vehicle (5% DMSO/2.5% Tween20 in water) by oral gavage. Tumour size was determined unblinded by caliper measurements of tumour length, width and depth and volume was calculated as 0.5236×length×width×depth (mm). In all experiments, mice were humanely killed and mammary tumours and lungs were collected when the primary tumours reached ethical limits or signs of ill health.\nFor lung metastases quantification, all mouse tissue samples were fixed in 10% formalin (Sigma) and embedded in paraffin. Samples were sectioned and hematoxylin and eosin (H&E) stained. Samples were imaged with a Leica CN400 slide scanner. Lung metastases were manually selected using Pen tool in ImageScope. Lung metastases number was counted and area was measured using ImageScope. The investigator was blinded to the experimental groups. The ratio of average metastases surface between compound treated and vehicle control treated (TIC) is calculated. The ratio of average metastases numbers between compound treated and vehicle control treated (T/C) is also calculated. Reduction in metastases area and/or in metastatses number in the compound treated group compared to vehicle-treated control group results in T/C<1. The antimetastatic efficacy of LOX inhibitors described in this invention, as measured by T/C in a model of breast cancer metastasising to lungs is shown in Table 2 and is significant (p<0.05) for all the data presented."}, "[2]": {"tested_on": "MMTV-PyMT breast transgenic model primary tumour", "experiment": "MMTV-PyMT transgenic mouse breast cancer model, primary tumour T/C", "assay_type": "in vivo", "conditions": "200 mg/kg po qd; ratio of average tumour volume treated/vehicle control; p<0.05", "protocol": "(§2) All procedures involving animals were approved by the Animal Welfare and Ethical Review Body of the Institute of Cancer Research and Cancer Research UK Manchester Institute in accordance with National Home Office regulations under the Animals (Scientific Procedures) Act 1986 and according to the guidelines of the Committee of the National Cancer Research Institute Tumour size was determined by caliper measurements of tumour length, width and depth and volume was calculated as volume=0.5236×length×width×depth (mm).\nas §1\n(§3) For therapeutic efficacy assessment, the ratio of average tumour volume between compound treated and vehicle control treated (T/C) is calculated. Reduction in tumour volume in the compound treated group compared to vehicle-treated control group results in T/C<1. The efficacy of LOX inhibitors described in this invention, as measured by T/C in a pancreatic cancer model, a colorectal cancer model and a breast cancer model is shown in Table 2 and is significant (p<0.05) for all the data presented."}, "[3]": {"tested_on": "SW620 human colorectal carcinoma cells (mutant RAS)", "experiment": "SW620 xenografts, primary tumour volume T/C", "assay_type": "in vivo", "conditions": "200 mg/kg po qd; ratio of average tumour volume treated/vehicle control; p<0.05", "protocol": "as §2\nSW620 xenografts: NCr mice were inoculated subcutaneously in the right flank with 5×10^6 SW620 cells at 100 ul suspension per animal. Groups of 7-8 mice were assigned to treatment following stratified allocation of tumour volumes with a median size of circa 100 mm^3. […] Tumours and weights are measured twice weekly using calipers. […] Frozen samples are kept at −80 degree centigrade until being analysed and the fixed samples stained according to the desired marker.\nas §3, with “Reduction in tumour volume in the compound treated group compared to vehicle-treated control group results in T/C<1.” left out"}, "[4]": {"tested_on": "MDA-MB-231 human breast adenocarcinoma", "experiment": "MDA-MB-231 xenografts, primary tumour volume T/C", "assay_type": "in vivo", "conditions": "200 mg/kg po qd, ratio of average tumour volume treated/vehicle control, p<0.05", "protocol": "as §2\nMDA-MB-231 xenografts. Ncr nude female mice at 6 weeks old from Charles River were injected into the third upper nipple mammary fat pad with MDA-MB-231 Luc 4×10^6 in 100 ul PB (50:50 Matrigel). When tumours reach a mean of 80 mm^3 around 10 days post cell inoculation the animals are allocated in 4 groups of 8. LOX inhibitor treatment is then administrated by oral gavage dosing, at 0.2 ml/20 g bodyweight once daily for up to 28 consecutive days. Tumours and weights are measured twice weekly using calipers and the animals can be imaged using non invasive method by bioluminescence using IVIS 200 imaging machine, weekly using 150 mg/kg luciferin administrate intraperitoneal or subcutaneous. At the end of the study the animals are culled, and samples taken, fixed or snap frozen in liquid nitrogen. Frozen samples kept at −80 degree centigrade until being analyzed and the fixed samples stained according to desired marker.\nas §3"}}, "data": [{"smiles": "CC1(C)C[C@@H]2CN(C(=O)N3CCS(=O)(=O)CC3)C[C@H]1N(c1ccc(N3CCS(=O)(=O)CC3)cc1)C2", "note": "[Example 8, (1,1-dioxidothiomorpholino)((1S,5S)-6-(4-(1,1-dioxidothiomorpholino)phenyl)-9,9-dimethyl-3,6-diazabicyclo[3.2.2]nonan-3-yl)methanone]", "values": [{"measurement": "inhibition at 2.5 µM", "setting": "LOX; 2.5 uM (stated in cell), DMSO = 0%, BAPN 1 mM = 100% inhibition, read-out: LOX biosensor inhibition (cyst) @ 2.5 uM", "result": 100, "unit": "%"}, {"measurement": "IC50", "setting": "LOX; roGFP2 ratio at basal surface, read-out: LOX biosensor IC50 (cyst)", "result": 540, "unit": "nM"}, {"measurement": "T/C MMT-PyMT breast transgenic model - metastases b) Area", "setting": "[1]; lung metastases area", "result": "b) 0.012"}, {"measurement": "T/C MMT-PyMT breast transgenic model - metastases a) Count", "setting": "[1]; lung metastases number", "result": "a) 0.1"}, {"measurement": "T/C MMT-PyMT breast transgenic model - primary tumour", "setting": "[2]", "result": 0.22}, {"measurement": "T/C SW620 human colorectal carcinoma cells (mutant RAS) - primary tumour", "setting": "[3]", "result": 0.48}, {"measurement": "response vs control in vivo at 200 mg/kg", "setting": "[4]", "result": 54, "unit": "%"}]}]}
